From PMC9687610, “Adenosine-Mimicking Derivatives of 3-Aminopyrazine-2-Carboxamide: Towards Inhibitors of Prolyl-tRNA Synthetase with Antimycobacterial Activity” (Biomolecules, 2022)
≈ marks a conversion by molar mass, not a printed value. Where two headings read alike, the source gives them in different places.

What was measured:
[1] = test system: Mycobacterium tuberculosis H37Ra ITM-M006710 (ATCC 9431); test: Microplate Alamar Blue Assay (MABA), Mtb H37Ra; type: cell-based; details: for MIC: Mycobacterium tuberculosis, 120 h, pH 6.6, MABA, Middlebrook 7H9 broth pH 6.6, resazurin after 120 h, read-out: Mtb H37Ra MIC
[2] = test system: Mycobacterium smegmatis DSM 43465 (ATCC 607); test: Microplate Alamar Blue Assay (MABA), M. smegmatis; type: cell-based; details: Mycolicibacterium smegmatis, read-out: M. smegmatis MIC
[3] = test system: M. aurum DSM 43999 (ATCC 23366); test: Microplate Alamar Blue Assay (MABA), M. aurum; type: cell-based; details: Mycolicibacterium aurum, read-out: M. aurum MIC
[4] = test system: Staphylococcus aureus subsp. aureus CCM 4223 (ATCC 29213); test: Antibacterial microdilution broth (EUCAST), SA; type: cell-based; details: Staphylococcus aureus; read after 24 h; read-out: SA MIC
[5] = test system: Staphylococcus aureus subsp. aureus methicillin-resistant (MRSA) CCM 4750 (ATCC 43300); test: Antibacterial microdilution broth (EUCAST), MRSA; type: cell-based; details: Staphylococcus aureus; read after 24 h; read-out: MRSA MIC
[6] = test system: Staphylococcus epidermidis CCM 4418 (ATCC 12228); test: Antibacterial microdilution broth (EUCAST), SE; type: cell-based; details: read after 24 h, read-out: SE MIC
[7] = test system: Enterococcus faecalis CCM 4224 (ATCC 29212); test: Antibacterial microdilution broth (EUCAST), EF; type: cell-based; details: Enterococcus faecalis; read after 24 h; read-out: EF MIC
[8] = test system: Escherichia coli CCM 3954 (ATCC 25922); test: Antibacterial microdilution broth (EUCAST), EC; type: cell-based; details: Escherichia coli; read after 24 h; read-out: EC MIC
[9] = test system: Acinetobacter baumannii DSM 30007 (ATCC 19606); test: Antibacterial microdilution broth (EUCAST), ACI; type: cell-based; details: Acinetobacter baumannii; read after 24 h; read-out: ACI MIC
[10] = test system: Pseudomonas aeruginosa CCM 3955 (ATCC 27853); test: Antibacterial microdilution broth (EUCAST), PA; type: cell-based; details: Pseudomonas aeruginosa; read after 24 h; read-out: PA MIC
[11] = test system: Candida albicans CCM 8320 (ATCC 24433); test: Antifungal microdilution broth (EUCAST), CA; type: cell-based; details: Candida albicans; read after 24 h; read-out: CA MIC
[12] = test system: Candida krusei CCM 8271 (ATCC 6258); test: Antifungal microdilution broth (EUCAST), CK; type: cell-based; details: Pichia kudriavzevii; read after 24 h; read-out: CK MIC
[13] = test system: Candida parapsilosis CCM 8260 (ATCC 22019); test: Antifungal microdilution broth (EUCAST), CP; type: cell-based; details: Lodderomyces parapsilosis; read after 24 h; read-out: CP MIC
[14] = test system: Candida tropicalis CCM 8264 (ATCC 750); test: Antifungal microdilution broth (EUCAST), CT; type: cell-based; details: Candida tropicalis; read after 24 h; read-out: CT MIC
[15] = test system: Aspergillus fumigatus ATCC 204305; test: Antifungal microdilution broth (EUCAST), AF; type: cell-based; details: Aspergillus fumigatus, ATCC204305; read after 24 h; read-out: AF MIC
[16] = test system: Aspergillus flavus CCM 8363; test: Antifungal microdilution broth (EUCAST), AFla; type: cell-based; details: Aspergillus flavus, CCM8363; read after 24 h; read-out: AFla MIC
[17] = test system: Lichtheimia corymbifera CCM 8077; test: Antifungal microdilution broth (EUCAST), LC; type: cell-based; details: Lichtheimia corymbifera, CCM8077; read after 24 h; read-out: LC MIC
[18] = test system: Trichophyton interdigitale CCM 8377 (ATCC 9533); test: Antifungal microdilution broth (EUCAST), TI; type: cell-based; details: Trichophyton interdigitale, 72 h, read-out: TI MIC
[19] = test system: HepG2 human hepatocellular carcinoma cells; test: In vitro HepG2 cytotoxicity (CellTiter 96); details: Homo sapiens, HepG2, 24 h, read-out: HepG2 IC50, 24 h incubation; * limit = highest evaluated concentration (precipitation in medium); ** over the 1000 µM limit
[20] = test system: Klebsiella pneumoniae CCM 4415 (ATCC 10031); test: Antibacterial microdilution broth (EUCAST), KP; details: read after 24 h

## Cc1ccc(C(=O)Nc2nccnc2C(=O)N(C)C)cc1 [Compound 36]
[1]
  MIC: ≥ 500 µg/mL
[1]; activity refers to Mtb H37Ra from the primary screening if not otherwise stated
  antimycobacterial activity (in words): inactive
[2]; MABA, resazurin after 48 h
  MIC: ≥ 500 µg/mL
[3]; MABA, resazurin after 72 h
  MIC: ≥ 500 µg/mL
[4]
  MIC: > 125 µM
[5]
  MIC: > 125 µM
[6]
  MIC: > 125 µM
[7]
  MIC: > 125 µM
[8]
  MIC: > 125 µM
[9]
  MIC: > 125 µM
[10]
  MIC: > 125 µM
[11]
  MIC: > 125 µM
[12]
  MIC: > 125 µM
[13]
  MIC: > 125 µM
[14]
  MIC: > 125 µM
[15]
  MIC: > 125 µM
[16]
  MIC: > 125 µM
[17]
  MIC: > 125 µM
[18]
  MIC: > 125 µM
other
  melting point: 188.7 to 189.5 °C
[19]
  IC50: > 1000 µM
[20]
  KP MIC: > 125 µM

## CC(C)(C)c1ccc(C(=O)Nc2nccnc2C(N)=O)cc1 [Compound 6]
[1]
  MIC: 15.6 µg/mL (≈ 52.4 µM)
[2]; 48 h
  MIC: 15.6 µg/mL (≈ 52.4 µM)
[3]; MABA, resazurin after 72 h
  MIC: ≥ 500 µg/mL
[4]
  MIC: > 125 µM
[5]
  MIC: > 125 µM
[6]
  MIC: > 125 µM
[7]
  MIC: > 125 µM
[8]
  MIC: > 125 µM
[9]
  MIC: > 125 µM
[10]
  MIC: > 125 µM
[11]
  MIC: > 125 µM
[12]
  MIC: > 125 µM
[13]
  MIC: > 125 µM
[14]
  MIC: > 125 µM
[15]
  MIC: > 125 µM
[16]
  MIC: > 125 µM
[17]
  MIC: > 125 µM
[18]
  MIC: > 125 µM
other
  melting point: 210 to 211.5 °C
[19]
  IC50: 114 µM
[20]
  KP MIC: > 125 µM

## Cc1ccc(-c2nc3nccnc3c(=O)[nH]2)cc1 [Compound 40]
[1]
  MIC: 31.2 µg/mL (≈ 131 µM)
[2]; MABA, resazurin after 48 h
  MIC: ≥ 250 µg/mL
[3]; MABA, resazurin after 72 h
  MIC: 250 µg/mL (≈ 1050 µM)
[4]
  MIC: > 125 µM
[5]
  MIC: > 125 µM
[6]
  MIC: > 125 µM
[7]
  MIC: > 125 µM
[8]
  MIC: > 125 µM
[9]
  MIC: > 125 µM
[10]
  MIC: > 125 µM
[11]
  MIC: > 125 µM
[12]
  MIC: > 125 µM
[13]
  MIC: > 125 µM
[14]
  MIC: > 125 µM
[15]
  MIC: > 125 µM
[16]
  MIC: > 125 µM
[17]
  MIC: > 125 µM
[18]
  MIC: > 125 µM
other
  melting point: 300.5 to 302 °C
[19]
  IC50: > 1000 µM
[20]
  KP MIC: > 125 µM

## COc1ccc(C(=O)Nc2nccnc2C(N)=O)cc1 [Compound 9]
[1]
  MIC: ≥ 125 µg/mL
[2]; 48 h
  MIC: ≥ 125 µg/mL
[3]; 72 h
  MIC: ≥ 125 µg/mL
[4]
  MIC: > 125 µM
[5]
  MIC: > 125 µM
[6]
  MIC: > 125 µM
[7]
  MIC: > 125 µM
[8]
  MIC: > 125 µM
[9]
  MIC: > 125 µM
[10]
  MIC: > 125 µM
[11]
  MIC: > 125 µM
[12]
  MIC: > 125 µM
[13]
  MIC: > 125 µM
[14]
  MIC: > 125 µM
[15]
  MIC: > 125 µM
[16]
  MIC: > 125 µM
[17]
  MIC: > 125 µM
[18]
  MIC: > 125 µM
other
  melting point: 257 to 258.5 °C
[19]
  IC50: > 250 µM
[20]
  KP MIC: > 125 µM

## CNC(=O)c1nccnc1NC(=O)c1ccc(Br)cc1 [Compound 35]
[1]
  MIC: ≥ 500 µg/mL
[2]; MABA, resazurin after 48 h
  MIC: ≥ 500 µg/mL
[3]; MABA, resazurin after 72 h
  MIC: ≥ 500 µg/mL
[4]
  MIC: > 125 µM
[5]
  MIC: > 125 µM
[6]
  MIC: > 125 µM
[7]
  MIC: > 125 µM
[8]
  MIC: > 125 µM
[9]
  MIC: > 125 µM
[10]
  MIC: > 125 µM
[11]
  MIC: > 125 µM
[12]
  MIC: > 125 µM
[13]
  MIC: > 125 µM
[14]
  MIC: > 125 µM
[15]
  MIC: > 125 µM
[16]
  MIC: > 125 µM
[17]
  MIC: > 125 µM
[18]
  MIC: > 125 µM
other
  melting point: 202 to 202.5 °C
[19]
  IC50: > 50 µM
[20]
  KP MIC: > 125 µM

## Cc1cccc(C(=O)Nc2nccnc2C(N)=O)c1 [Compound 3]
[1]
  MIC: 62.5 µg/mL (≈ 244 µM)
[2]; MABA, resazurin after 48 h
  MIC: ≥ 250 µg/mL
[3]; MABA, resazurin after 72 h
  MIC: ≥ 250 µg/mL
[4]
  MIC: > 500 µM
[5]
  MIC: > 500 µM
[6]
  MIC: > 500 µM
[7]
  MIC: > 500 µM
[8]
  MIC: > 500 µM
[9]
  MIC: > 500 µM
[10]
  MIC: > 500 µM
[11]
  MIC: > 500 µM
[12]
  MIC: > 500 µM
[13]
  MIC: > 500 µM
[14]
  MIC: > 500 µM
[15]
  MIC: > 500 µM
[16]
  MIC: > 500 µM
[17]
  MIC: > 500 µM
[18]
  MIC: > 500 µM
other
  melting point: 226.9 to 228.8 °C
[19]
  IC50: > 100 µM
[20]
  KP MIC: > 500 µM
